Consider one molecule from paper PMC4279406, “Simultaneous targeting of PI3Kδ and a PI3Kδ-dependent MEK1/2-Erk1/2 pathway for therapy in pediatric B-cell acute lymphoblastic leukemia” (Oncotarget, 2014).

For one experiment, the target named is T1, PI3KC2α (Homo sapiens, UniProt O00443).
T1 construct: purchased Millipore (Kinase Profiler Services, United Kingdom)
Nature of the experiment: Kinase Profiler lipid kinase relative activity. As to conditions: X-370 10 μM, compared to DMSO control. It counts as biochemical. As for the experimental part: (§1) Figure 1 Structure of X-370 and its inhibitory activity against lipid kinases (A) Chemical structure of X-370. (B) X-370 docked to the crystal structure of PI3Kδ. The model was generated based on the co-crystal structure of PI3Kδ and ZSTK474 (PDB ID: 2WXL). (C) IC50 of X-370 against PI3Kδ increased along with ATP concentration. […] Data was obtained from Kinase Profiler Services (Millipore, United Kingdom). Briefly, X-370 was solved in DMSO at a concentration of 10 mM, 10-point kinase inhibitory activity was measured over concentrations in a half-log dilution series started at 1000 nM with ATP at a concentration consistent with Km of each isoform of class I PI3K and IC50s were calculated. Relative kinase activity in the presence of 10 μM X-370 compared to DMSO control was measured for the rest of lipid kinases. TEXT PRINTED IN THE PICTURE: (D) X-370: IC50 (nM): 7 (Isoform: PI3Kδ); IC50 (nM): 433 (Isoform: PI3Kα); IC50 (nM): >1,000 (Isoform: PI3Kγ); IC50 (nM): >1,000 (Isoform: PI3Kβ); Relative Activity (%) X-370 (10 μM): 55 (Lipid Kinases: PI3KC2α); Relative Activity (%) X-370 (10 μM): 63 (Lipid Kinases: PI3KC2γ); Relative Activity (%) X-370 (10 μM): 105 (Lipid Kinases: PIP4K2α); Relative Activity (%) X-370 (10 μM): 100 (Lipid Kinases: PIP5K1α); Relative Activity (%) X-370 (10 μM): 103 (Lipid Kinases: PIP5K1γ) DOUBTS OF THE COPYIST ABOUT THIS PICTURE: Panel D, left table (Isoform / IC50): no substance label is printed in this table; assigned to X-370, the only label printed in the panel (head of the right table)
(§2) In vitro kinase profile assays were analyzed by the Kinase Profiler Service (Millipore, United Kingdom) following its guidelines. A GST-tagged human p110δ and regulatory full-length p85 were co-expressed in insect cell Sf9. Recombinant protein was extracted by affinity purification. The PI3K kinase activity was determined in the increasing concentration of ATP and X-370 with PI3-Kinase HTRF™ Assay kit (Millipore) as described previously.

Another experiment has as its target T2, PI3KC2γ (Homo sapiens, UniProt O75747).
T2 construct: purchased Millipore (Kinase Profiler Services, United Kingdom)
Nature of the experiment: Kinase Profiler lipid kinase relative activity. Format: biochemical. The following applies: X-370 10 μM, compared to DMSO control. As for the experimental part:
as §1, §2

A further experiment has as its target T3, PIP4K2α (Homo sapiens, UniProt P48426).
T3 construct: purchased Millipore (Kinase Profiler Services, United Kingdom)
The experiment can be described thus: Kinase Profiler lipid kinase relative activity. Format: biochemical. As to conditions: X-370 10 μM, compared to DMSO control. As for the experimental part: as §1, §2

The target in another experiment is T4, PIP5K1α (Homo sapiens, UniProt Q99755).
T4 construct: purchased Millipore (Kinase Profiler Services, United Kingdom)
The experiment can be described thus: Kinase Profiler lipid kinase relative activity. The following applies: X-370 10 μM, compared to DMSO control. It counts as biochemical. As for the experimental part:
as §1, §2

In a further experiment the target is T5, PIP5K1γ (Homo sapiens, UniProt O60331).
T5 construct: purchased Millipore (Kinase Profiler Services, United Kingdom)
Nature of the experiment: Kinase Profiler lipid kinase relative activity. Format: biochemical. The following applies: X-370 10 μM, compared to DMSO control. As to the method:
as §1, §2

In another experiment the test system is Raji cells. Nature of the experiment: Caspase 3/7 activity assay. It counts as cell-based, human. As for the experimental part:
Simultaneous targeting of PI3Kδ and a PI3Kδ-dependent MEK1/2-Erk1/2 pathway for therapy in pediatric B-cell acute lymphoblastic […]
Cells were treated as indicated conditions and then subjected to lysate to perform standard Western blot as described previously1. Briefly, whole-cell lysates and SDS-loading buffer diluted cell fractions were analyzed on SDS-PAGE gels. Transfer to nitrocellulose membranes, nonfat milk blocking, probing with indicated primary antibodies and the corresponding HRP-conjugated second antibodies.
Chemiluminescence were performed and captured using ImageQuant LAS 4000 (GE healthcare Life Sciences, Piscataway, NJ, USA) and band intensity was measure both with ImageQuant™ TL (GE Healthcare Life Sciences) 2.
Caspase 3/7 activity assay
Raji cells were treated with or without X-370 at 1 μM, 5μM and 10 μM for 24, 48 and 72 hours, thenwere measured using the Caspase-Glo® 3/7 Assay (Promega, US) following the protocol and relative caspase-3/7 activity was normalized to cell number which DMSO control was the base line.
5-bromo-2'-deoxyuridine (BrdU) incorporation Assay
5-bromo-2'-deoxyuridine (BrdU) incorporation was performed using FITC BrdU Flow Kit (BD Pharmingen, San Diego, CA) according to the provided protocol.
Figure S1;. CAL-101 docked to the crystal structure of PI3Kδ. […]

The structures appear in SMILES notation.

T3 sequence (P48426 whole entry): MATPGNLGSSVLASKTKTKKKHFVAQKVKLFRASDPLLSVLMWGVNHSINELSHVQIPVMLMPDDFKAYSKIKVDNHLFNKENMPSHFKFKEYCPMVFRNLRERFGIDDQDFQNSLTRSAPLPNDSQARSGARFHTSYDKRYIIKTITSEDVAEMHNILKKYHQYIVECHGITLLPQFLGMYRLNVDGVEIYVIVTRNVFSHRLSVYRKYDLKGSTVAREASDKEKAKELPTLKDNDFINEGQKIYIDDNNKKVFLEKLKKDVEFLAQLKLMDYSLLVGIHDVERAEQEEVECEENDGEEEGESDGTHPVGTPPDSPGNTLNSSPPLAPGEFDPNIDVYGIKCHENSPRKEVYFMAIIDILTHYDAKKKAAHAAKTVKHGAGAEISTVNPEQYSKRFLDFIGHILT
T5 sequence (O60331 whole entry, species assumed): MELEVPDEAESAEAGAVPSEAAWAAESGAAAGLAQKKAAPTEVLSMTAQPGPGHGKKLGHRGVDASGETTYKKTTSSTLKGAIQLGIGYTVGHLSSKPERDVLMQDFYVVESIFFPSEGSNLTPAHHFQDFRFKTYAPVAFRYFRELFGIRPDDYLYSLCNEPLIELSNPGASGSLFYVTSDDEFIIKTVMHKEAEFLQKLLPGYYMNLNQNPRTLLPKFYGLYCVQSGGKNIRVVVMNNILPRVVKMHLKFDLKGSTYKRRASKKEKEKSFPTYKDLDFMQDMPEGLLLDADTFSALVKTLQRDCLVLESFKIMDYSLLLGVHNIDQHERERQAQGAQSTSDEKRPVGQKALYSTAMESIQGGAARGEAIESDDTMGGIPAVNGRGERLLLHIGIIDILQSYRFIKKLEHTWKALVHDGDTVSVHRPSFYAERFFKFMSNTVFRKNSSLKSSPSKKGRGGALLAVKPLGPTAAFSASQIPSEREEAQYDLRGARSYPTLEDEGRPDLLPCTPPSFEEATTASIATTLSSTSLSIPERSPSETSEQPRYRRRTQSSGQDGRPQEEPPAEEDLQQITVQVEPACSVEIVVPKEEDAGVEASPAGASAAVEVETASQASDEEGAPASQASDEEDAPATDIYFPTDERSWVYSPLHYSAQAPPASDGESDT
T1 sequence (O00443 whole entry, species assumed): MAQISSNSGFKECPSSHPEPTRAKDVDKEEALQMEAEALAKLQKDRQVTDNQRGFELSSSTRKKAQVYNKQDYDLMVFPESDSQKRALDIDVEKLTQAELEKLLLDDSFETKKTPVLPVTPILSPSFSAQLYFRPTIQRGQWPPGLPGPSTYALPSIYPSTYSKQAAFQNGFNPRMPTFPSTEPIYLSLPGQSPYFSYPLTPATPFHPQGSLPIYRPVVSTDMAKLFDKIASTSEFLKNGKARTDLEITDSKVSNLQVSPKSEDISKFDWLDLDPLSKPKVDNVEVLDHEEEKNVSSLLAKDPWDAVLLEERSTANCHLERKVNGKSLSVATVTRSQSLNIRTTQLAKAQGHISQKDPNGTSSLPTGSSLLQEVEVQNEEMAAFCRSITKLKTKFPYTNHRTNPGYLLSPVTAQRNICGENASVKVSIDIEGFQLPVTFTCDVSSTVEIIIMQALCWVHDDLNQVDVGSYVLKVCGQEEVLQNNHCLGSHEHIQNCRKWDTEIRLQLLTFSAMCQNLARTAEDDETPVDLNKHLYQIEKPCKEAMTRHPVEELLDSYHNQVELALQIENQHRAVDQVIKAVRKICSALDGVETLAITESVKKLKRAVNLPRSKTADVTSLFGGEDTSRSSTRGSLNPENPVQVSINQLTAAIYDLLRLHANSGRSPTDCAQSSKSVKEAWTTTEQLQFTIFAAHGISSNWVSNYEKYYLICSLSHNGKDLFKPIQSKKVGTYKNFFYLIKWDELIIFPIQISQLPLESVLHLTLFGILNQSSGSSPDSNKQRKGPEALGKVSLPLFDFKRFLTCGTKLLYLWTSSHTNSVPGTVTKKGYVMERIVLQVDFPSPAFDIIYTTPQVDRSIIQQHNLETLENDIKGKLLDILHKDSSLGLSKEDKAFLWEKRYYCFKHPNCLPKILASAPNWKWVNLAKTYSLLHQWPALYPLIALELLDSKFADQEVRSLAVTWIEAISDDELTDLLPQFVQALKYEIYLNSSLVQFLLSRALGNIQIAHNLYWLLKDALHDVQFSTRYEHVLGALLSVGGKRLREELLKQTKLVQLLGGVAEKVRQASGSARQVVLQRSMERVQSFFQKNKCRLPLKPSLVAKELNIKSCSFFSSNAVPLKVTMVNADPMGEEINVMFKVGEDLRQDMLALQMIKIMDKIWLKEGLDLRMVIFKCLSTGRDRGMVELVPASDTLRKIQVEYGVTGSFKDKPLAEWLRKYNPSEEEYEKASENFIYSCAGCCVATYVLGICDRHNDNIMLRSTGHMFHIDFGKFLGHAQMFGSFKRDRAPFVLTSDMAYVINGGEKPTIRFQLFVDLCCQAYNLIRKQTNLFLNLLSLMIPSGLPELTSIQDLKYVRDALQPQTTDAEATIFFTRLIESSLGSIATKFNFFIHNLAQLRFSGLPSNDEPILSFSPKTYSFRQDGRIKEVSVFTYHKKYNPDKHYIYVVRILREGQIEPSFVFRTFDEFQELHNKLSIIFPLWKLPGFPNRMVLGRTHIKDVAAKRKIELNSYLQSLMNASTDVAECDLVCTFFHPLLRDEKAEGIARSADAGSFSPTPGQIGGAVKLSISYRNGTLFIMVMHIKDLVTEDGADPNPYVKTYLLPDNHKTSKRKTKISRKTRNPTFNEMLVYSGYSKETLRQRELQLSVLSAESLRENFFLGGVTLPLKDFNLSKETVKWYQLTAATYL
T2 sequence (O75747 whole entry, species assumed): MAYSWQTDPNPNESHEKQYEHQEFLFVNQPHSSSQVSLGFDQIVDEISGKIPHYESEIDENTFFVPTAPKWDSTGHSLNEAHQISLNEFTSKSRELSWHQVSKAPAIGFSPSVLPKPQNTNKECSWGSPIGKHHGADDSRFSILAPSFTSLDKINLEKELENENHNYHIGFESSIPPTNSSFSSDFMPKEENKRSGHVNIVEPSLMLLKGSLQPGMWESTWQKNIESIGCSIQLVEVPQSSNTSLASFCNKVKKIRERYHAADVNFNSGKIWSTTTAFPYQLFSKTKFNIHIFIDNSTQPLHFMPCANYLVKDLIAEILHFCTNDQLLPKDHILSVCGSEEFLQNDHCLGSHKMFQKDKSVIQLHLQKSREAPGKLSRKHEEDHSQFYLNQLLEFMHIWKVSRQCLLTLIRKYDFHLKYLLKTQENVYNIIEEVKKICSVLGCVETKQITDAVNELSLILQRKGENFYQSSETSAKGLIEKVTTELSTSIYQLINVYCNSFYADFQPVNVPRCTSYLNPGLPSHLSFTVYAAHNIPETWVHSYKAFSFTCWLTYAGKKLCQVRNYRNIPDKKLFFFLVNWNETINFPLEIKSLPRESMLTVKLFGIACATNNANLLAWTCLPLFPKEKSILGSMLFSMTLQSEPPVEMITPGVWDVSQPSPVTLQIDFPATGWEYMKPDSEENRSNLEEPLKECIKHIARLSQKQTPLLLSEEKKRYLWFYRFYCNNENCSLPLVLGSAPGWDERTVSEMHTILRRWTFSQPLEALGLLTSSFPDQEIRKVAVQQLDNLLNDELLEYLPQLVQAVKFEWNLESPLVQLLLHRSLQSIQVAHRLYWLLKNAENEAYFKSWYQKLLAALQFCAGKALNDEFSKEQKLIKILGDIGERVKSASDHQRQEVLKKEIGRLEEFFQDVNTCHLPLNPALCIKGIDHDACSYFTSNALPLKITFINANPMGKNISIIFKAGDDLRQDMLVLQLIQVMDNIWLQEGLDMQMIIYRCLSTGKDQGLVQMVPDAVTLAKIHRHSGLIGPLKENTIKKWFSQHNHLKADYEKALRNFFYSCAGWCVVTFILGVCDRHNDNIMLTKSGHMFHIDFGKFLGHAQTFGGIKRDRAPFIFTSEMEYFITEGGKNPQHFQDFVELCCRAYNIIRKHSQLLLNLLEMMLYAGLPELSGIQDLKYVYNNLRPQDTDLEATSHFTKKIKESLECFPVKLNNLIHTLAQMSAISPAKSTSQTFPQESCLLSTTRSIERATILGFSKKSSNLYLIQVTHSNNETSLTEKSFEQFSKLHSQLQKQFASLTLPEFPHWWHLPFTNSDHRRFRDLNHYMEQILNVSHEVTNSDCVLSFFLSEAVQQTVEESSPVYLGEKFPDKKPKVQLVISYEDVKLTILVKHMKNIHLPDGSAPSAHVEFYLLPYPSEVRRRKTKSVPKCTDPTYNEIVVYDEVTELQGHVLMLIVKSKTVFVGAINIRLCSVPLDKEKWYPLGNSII
T4 sequence (Q99755 whole entry, species assumed): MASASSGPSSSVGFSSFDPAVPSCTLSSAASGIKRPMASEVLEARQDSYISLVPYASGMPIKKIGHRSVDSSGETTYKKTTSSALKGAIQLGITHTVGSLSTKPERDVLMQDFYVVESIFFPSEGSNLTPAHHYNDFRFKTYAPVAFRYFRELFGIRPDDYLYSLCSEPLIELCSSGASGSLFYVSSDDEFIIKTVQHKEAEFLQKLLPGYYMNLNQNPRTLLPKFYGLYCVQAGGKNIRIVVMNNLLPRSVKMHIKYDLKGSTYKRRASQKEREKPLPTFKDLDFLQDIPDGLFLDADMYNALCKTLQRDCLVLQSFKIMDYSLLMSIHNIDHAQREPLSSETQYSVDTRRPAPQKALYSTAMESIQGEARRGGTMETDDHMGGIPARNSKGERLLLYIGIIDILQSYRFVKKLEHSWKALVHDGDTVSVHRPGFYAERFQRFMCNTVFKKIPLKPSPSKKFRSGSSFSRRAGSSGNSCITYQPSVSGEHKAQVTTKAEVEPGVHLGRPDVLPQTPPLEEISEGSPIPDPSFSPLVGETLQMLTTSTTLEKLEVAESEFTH

On to `O=C(N1CCCC1)N1CCC(n2cnc3c(-n4c(C(F)F)nc5ccccc54)nc(N4CCOCC4)nc32)CC1` [X-370], for which the activity at 10 µM on PI3KC2α came out at 55%; at PI3KC2γ, 63%; at PIP4K2α it was 105%; at PIP5K1α it was 100%; at PIP5K1γ, 103%. Also, the “concentration at which caspase 3/7 activity increased” value in the experiment with Raji cells is ≥ 5 µM.
